Paper PMC9034004, “Methionine epimerization in cyclic peptides” (RSC Advances, 2021)

What was measured:
MDA-MB-231 cells = test: CytoTox Green cytotoxicity assay, MDA-MB-231; assay type: cell-based, Human; conditions: 100 μM, 48 h, 8000 cells per well, DMSO 2% as negative control
Description: A Forma Series II 3110 Water-Jacketed CO2 Incubator (Thermo Fisher Scientific) containing T-75 cell culture flasks at 37 °C under a humidified atmosphere was used to culture human breast cancer cell lines MDA-MB-231 and Sk-Br-3. 10% fetal bovine serum (FBS) and 1% penicillin under 5% CO2 were used to supplement McCoy's 5A Modified Medium to culture Sk-Br-3 cell line, and 10% FBS and 1% penicillin under 0% CO2 were used to supplement Leibovitz's L-15 Medium to culture MDA-MB-231 cell line. Each cell line's culture medium was changed every 2–3 days.
MDA-MB-231 and Sk-Br-3 cells were plated in 96-well plates at 8000 cells per well (final culture volume – 300 μL) and allowed to grow overnight for attachment before being treated with LO. LO stock solutions were prepared in DMSO at various concentrations of 200 μM; 100 μM; 50 μM, 25 μM, 12.5 μM. CytoTox Green reagent was added to wells during treatments. DMSO treated cells (final concentration at 2%) were used as a negative control. Following the manufacturer's recommended protocols, LOs cytotoxicity was continuously monitored at 24 h intervals for 120 h and calculated using the equation.Cytotoxicity (%) = [OD (experiment) − OD (vehicle control)]/[OD (maximum cell death) − OD (vehicle control)] × 100%

[1] = Alkaline treatment of LOs (base-catalysed Met epimerization, HPLC); assay type: physicochemical; conditions: LOs 1, 4 and 7 mixture treated with KOH in 70% aqueous ethanol, HPLC at 214 nm and 280 nm
Description: HPLC data was collected at a wavelength range of 190–300 nm using Agilent 1200 series HPLC system equipped with an autosampler, quaternary pump, diode array detector and degasser. Chromatographic separations for Marfey's derivatives were conducted on 100 mm × 4.6 mm i.d., reversed-phase Chromolith® Performance RP-18e columns (Merck KGaA, Darmstadt, Germany). The mobile phase consisted of H2O and 0.05 M triethyl phosphate buffer at a flow rate of 2 mL min^−1 (85 : 15 for 3 min, 85 : 15 to 60 : 40 in 18 min, to 10 : 90 in 0.5 min, 10 : 90 for 1 min, to 85 : 15 in 0.5 min, to equilibration for 2 min) with column compartment at 30 °C. Chromolith® High Resolution RP-18e columns 50 mm × 4.6 mm i.d. (Merck KGaA, Darmstadt, Germany) equipped with in-line filters were used for LO analytical characterization. H2O and CH3CN linear HPLC gradient with a flow rate of 2 mL min^−1 (50 : 50 to 20 : 80 for 1.8 min, 20 : 80 to 10 : 90 in 0.1 min, to 50 : 50 in 0.1 min, to equilibration for 1 min), and a column compartment at 32 °C was used.
LO (1 g) was dissolved in 70% aqueous ethanol (2.5 mL) and KOH (0.25 g) was added. The mixture was sonicated for 30 min. A portion of the mixture (∼1 mL) was transferred to a glass vial and extracted with EtOAc (∼3 mL) then settled. The upper EtOAc phase was transferred by pipette to a clean tube and dried under airflow. […]

Substance | % cytotoxicity (MDA-MB-231 cells) | new HPLC peak after KOH treatment (in words) [1]
[1−9-NαC], DMet-linusorb B2 [LO 8] | ~100% | 
[1−9-NαC]-linusorb B2 [LO 2] | ~40% | 
[1−9-NαC]-linusorb B3 [LO 1] |  | no extra peak was observed
